Source: US4250170A, “Antibacterial agents Bu-2349A and B and method of using same” (Bristol-Myers Company, priority 1979, dated 1981)
In brackets after ≈: the same amount, converted by molar mass.

Key:
[1] = test system: Escherichia coli (Ec-9), AAC(6')-1; assay: MIC, two-fold agar dilution; assay type: cell-based; settings: 18 h, Table 3, Mueller-Hinton agar, 10^-4 dilution, enzyme AAC(6')-1
[2] = test system: Klebsiella pneumoniae (Kp-33), AAC(3)-3; assay: MIC, two-fold agar dilution; assay type: cell-based; settings: 18 h, Table 3, Mueller-Hinton agar, 10^-4 dilution, enzyme AAC(3)-3
[3] = test system: Clostridium chauvoei (Ch-1); assay: MIC against anaerobic bacteria; assay type: cell-based; settings: 18 h, Table 4, GAM Medium, pH 7
Description: (§1) The minimum inhibitory concentrations (MIC) of Bu-2349A and B were determined against a wide variety of bacteria by the two-fold agar dilution method. Mueller-Hinton agar medium was generally used for the determination of bacterial MIC except for species of Streptococcus, Neisseria and Hemophilus for which Gonococcus agar medium (GC agar, Nissui Co., Tokyo) was used. Gifu anaerobe agar medium (GAM agar, Eiken Co., Tokyo) was used for anaerobic bacteria. The MIC's were determined after overnight incubation at 37° C. with an initial inoculum equivalent to a 10^-4 dilution of an 18-hour culture for the aerobic and anaerobic bacteria, except for Streptococcus, Neisseria and Hemophilus for which a 10^-2 dilution was used.

[4] = test system: Propionibacterium acnes (Pc-102); assay: MIC against anaerobic bacteria; assay type: cell-based; settings: Cutibacterium acnes, 18 h; Table 4; GAM Medium, pH 7
Description: as §1

[5] = test system: Clostridium perfringens (Cp-1); assay: microbe, parasite or virus in culture; assay type: cell-based; settings: 18 h, pH 7
[6] = test system: Escherichia coli (Ec-62), AAC(3)- 1; assay: MIC, two-fold agar dilution; assay type: cell-based; settings: 18 h, Table 3, Mueller-Hinton agar, 10^-4 dilution, enzyme AAC(3)- 1
[7] = test system: Streptococcus viridans (Sv-1); assay: MIC, two-fold agar dilution; assay type: cell-based; settings: 18 h, Table 3, GC agar, 10^-2 dilution
[8] = test system: Veillonella parvula ATCC 17745 (Vp-1); assay: MIC against anaerobic bacteria; assay type: cell-based; settings: ATCC17745, 18 h, Table 4, GAM Medium, pH 7
[9] = test system: Bacteroides fragilis (Bf-3); assay: MIC against anaerobic bacteria; assay type: cell-based; settings: 18 h, Table 4, GAM Medium, pH 7
[10] = test system: E. coli Juhl; assay: experimental infections in mice; assay type: in vivo; settings: Escherichia coli, 120 h, im, 100 X LD50 ip challenge, 5 days, read-out: PD50 (median protective dose)
Description: (§2) The in vivo antibacterial activity of Bu-2349A was determined by experimental infections in mice. Mice were challenged via the intraperitoneal route with a 100 X LD50 dose of the pathogens in a 5% suspension of hog gastric mucin (American Laboratories, Omaha, Neb.). Bu-2349A was administered by the intramuscular route immediately after the bacterial challenge.

[11] = test system: S. aureus Smith; assay: experimental infections in mice; assay type: in vivo; settings: Staphylococcus aureus, 120 h, im, 100 X LD50 ip challenge, 5 days, read-out: PD50 (median protective dose)
Description: as §2

[12] = test system: K. pneumoniae A9977; assay: experimental infections in mice; assay type: in vivo; settings: Klebsiella pneumoniae, A9977, 120 h, im, 100 X LD50 ip challenge, 5 days, read-out: PD50 (median protective dose)
Description: as §2

[13] = test system: P. mirabilis A9554; assay: experimental infections in mice; assay type: in vivo; settings: Proteus mirabilis, A9554, 120 h, im, 100 X LD50 ip challenge, 5 days, read-out: PD50 (median protective dose)
Description: as §2

[14] = test system: P. vulgaris A9436; assay: experimental infections in mice; assay type: in vivo; settings: Proteus vulgaris, A9436, 120 h, im, 100 X LD50 ip challenge, 5 days, read-out: PD50 (median protective dose)
Description: as §2

[15] = test system: S. pneumoniae A20759; assay: experimental infections in mice; assay type: in vivo; settings: im
Description: as §2

[16] = test system: Streptococcus pneumoniae (Dp-4); assay: MIC, two-fold agar dilution; assay type: cell-based; settings: 18 h, Table 3, GC agar, 10^-2 dilution
[17] = test system: anaerobic organisms; assay: in vitro activity against anaerobic bacteria, overall statement; assay type: cell-based; settings: most of the anaerobic organisms tested
[18] = solubility; assay type: physicochemical; settings: hydrochloride salt
[19] = test system: Proteus rettgeri (Pr-2); assay: MIC, two-fold agar dilution; assay type: cell-based; settings: Providencia rettgeri, 18 h; Table 3; Mueller-Hinton agar, 10^-4 dilution
[20] = test system: Staphylococcus aureus Smith (Sa-2); assay: MIC, two-fold agar dilution; assay type: cell-based; settings: 18 h, Table 3, Mueller-Hinton agar, 10^-4 dilution
[21] = test system: Serratia marcescens (Sm-2); assay: MIC, two-fold agar dilution; assay type: cell-based; settings: 18 h, Table 3, Mueller-Hinton agar, 10^-4 dilution
[22] = test system: Mycobacterium phlei D88 (Mp-1); assay: MIC, two-fold agar dilution; assay type: cell-based; settings: Mycolicibacterium phlei, 18 h; Table 3; Mueller-Hinton agar, 10^-4 dilution

Work on `C=C1OC(OC2C(CO)OC(Oc3ccc(C(=O)NCCCNCCCCNCCCCN)cc3)C2O)C(O)C(OC2OC(CO)C(OC3OC(C)C(N)C(O)C3NC(=O)C(C)N)C(O)C2O)C1O` (stereo not shown) [Bu-2349A] yielded an MIC [1] of 0.8 µg/mL (≈ 0.808 µM), an MIC [2] of 3.1 µg/mL (≈ 3.13 µM) and an MIC [3] of over 100 µg/mL. For the same compound, the MIC [4] was 12.5 µg/mL (≈ 12.6 µM), the MIC [5] was over 100 µg/mL and the MIC [6] was 1.6 µg/mL (≈ 1.62 µM). For the same compound, the MIC [7] was over 100 µg/mL, the MIC [8] was over 100 µg/mL and the MIC [9] was over 100 µg/mL. For the same compound, the ED50 [10] was 5.4 mg/kg, the ED50 [11] was 3.2 mg/kg and the ED50 [12] was 7.2 mg/kg. For the same compound, the ED50 [13] was 16 mg/kg, the ED50 [14] was 12 mg/kg and the ED50 ([15]; Streptococcus pneumoniae, A20759, 120 h, 100 X LD50 ip challenge, 5 days, read-out: PD50 (median protective dose)) was over 100 mg/kg. For the same compound, the “activity against the S. pneumoniae infection” value [15] was “inactive”, the MIC [16] was over 100 µg/mL and the “activity against anaerobic organisms” value [17] was “inactive”. The “solubility in methanol, ethanol, dimethylsulfoxide and dimethylformamide” value ([18]; methanol, ethanol, dimethylsulfoxide and dimethylformamide) was “slightly soluble”, the “solubility in other common organic solvents” value ([18]; other common organic solvents) was “practically insoluble” and the solubility in water ([18]; water) was “soluble”. It also gave an MIC [19] of 0.8 µg/mL (≈ 0.808 µM), an MIC [20] of 3.1 µg/mL (≈ 3.13 µM) and an MIC [21] of 25 µg/mL (≈ 25.2 µM). The MIC [22] was 3.1 µg/mL (≈ 3.13 µM).
